For one series, the target named is T1, human MRGPR X2 (Homo sapiens, UniProt Q96LB1).
T1 construct: expressed in transfected cells
T1 sequence (Q96LB1 1-330): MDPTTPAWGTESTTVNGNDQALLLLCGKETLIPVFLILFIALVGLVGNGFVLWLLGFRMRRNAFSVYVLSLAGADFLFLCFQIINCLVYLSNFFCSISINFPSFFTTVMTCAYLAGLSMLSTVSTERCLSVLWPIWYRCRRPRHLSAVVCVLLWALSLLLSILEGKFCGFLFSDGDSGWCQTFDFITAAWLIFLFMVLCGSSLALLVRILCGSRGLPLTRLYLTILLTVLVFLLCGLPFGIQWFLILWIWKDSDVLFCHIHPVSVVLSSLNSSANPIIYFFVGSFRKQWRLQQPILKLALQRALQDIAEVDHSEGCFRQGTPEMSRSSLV
The series is described as follows: MRGPR X2 activity, IP-One Gq HTRF antagonist assay versus 0.3 μM Cortistatin-14. Type of series: cell-based. As to conditions: CHO cells expressing human MRGPR X2; versus 0.3 μM Cortistatin-14 agonist; IP-1 HTRF; read-out: MRGPRX2 Antagonist Activity. On the procedure:
CHO cells stably transfected to express human MRGPR X2 were maintained in an incubator at 37° C. with 5% CO2 and grown in F12 (HAM) media with 10% fetal bovine serum (FBS), 1% Glutamax, 1% penicillin/streptomycin, 800 μg/mL Geneticin (G418), and 300 μg/mL Hygromycin B.
Cells were plated in a 384-well assay plate at 20,000 cells per well in 12 μL of Opti-MEM and kept in an incubator overnight. On the day of the assay, compounds solubilized at 10 mM in DMSO were added as a 10-point curve (30 μM final top concentration with 1:3 serial dilutions) using a Tecan D300E digital dispenser. Agonists were diluted in assay buffer (final concentrations of 5.7 mM Tris-HCl, 43 mM NaCl, 50 mM LiCl, pH=8) and 2 μL of the agonist Cortistatin-14 (CPC Scientific, catalog CORT-002) are added to each well. Final concentrations of agonists were 0.3 μM Cortistatin. Final concentrations of DMSO were kept consistent across the plate. Plates were incubated in the dark for 1 h at 37° C. and then for 1 h at room temperature. IP-1 standards and HTRF detection reagents were added according to the IP-One—Gq Kit purchased from Cisbio (part number 62IPAPEJ) and incubated in the dark for 1 h at room temperature. The plate was read on a Molecular Devices SpectraMax iD5 plate reader. The HTRF ratio was calculated from the raw data and graphed using GraphPad Prism to calculate an IC50 value for each compound.
The activity ranges are denoted as follows: “+++++” denotes antagonist activity<100 nM; “++++” denotes antagonist activity between 100 and 500 nM; “+++” denotes activity between 501 and 1000 nM; “++” denotes activity between 1001 and 2500 nM; and “+” denotes activity>2500 nM
In general terms: TR-FRET usually uses a lanthanide donor and a delayed reading to cut background.

The test system of a further series is Human LAD2 cells. The series is described as follows: Mast Cell Beta-Hexosaminidase Release Assay (500 nM Cortistatin-14). Type of series: cell-based. The conditions noted are these: read-out: MRGPRX2 Antagonist Activity. The method, then:
Human LAD2 cells (NIH) were maintained in an incubator at 37° C. with 5% CO2 and cultured in StemPro-34 serum-free media (Gibco 10639011) supplemented with 2 mM L-glutamine, 100 U/ml penicillin, […] streptomycin and 100 ng/ml SCF (Invitrogen PEP0860), at a concentration of 2-5×10^5 cells/mL, with hemidepletion every 1-2 weeks.
Cells were transferred to SCF-Free medium at 2.5×10^5 cells/mL and kept in an incubator overnight. On the day of the assay, cells were washed twice in Assay Buffer (final concentrations 10 mM HEPES, 137 mM NaCl, 5.6 mM D-glucose, 2.7 mM KCl, 1 mM MgCl, 1.8 mM CalCl2, 0.4 mM Na2HPO4·7H2O, 0.04% BSA, pH=7.4) and plated in a 96-well v-bottom plate at 20,000 cells per well in 80 μL Assay Buffer. […] After incubation, 50 μL of 400 mM Glycine buffer (pH 10.7) was added into each well and the plate was read on a Molecular Devices SpectraMax iD5 plate reader (absorbance at 405 nm with reference filter at 620 nm). After background subtraction, the percentage degranulation (percent beta-hexosaminidase release) was calculated as 100×(supernatant values)/(supernatant+lysate values), followed by analysis using GraphPad Prism software to calculate an IC50 value for each compound. […]

Series [1] is described as follows: Mouse Pharmacokinetics Studies. Type of series: in vivo. As to conditions: plasma, male C57BL/6 mice, 50 mg/kg oral gavage, non-fasted; for AUC(0-t): male, C57BL/6, mouse, po, 50 mg/kg. On the procedure:
Compounds were formulated in 5% DMSO, 5% Solutol, and 90% PBS without Ca and Mg (pH 7.4) at a concentration of 5 mg/mL. Male C57BL/6 mice (n=3/compound) were administered a 50 mg/kg dose of each compound by oral gavage under a non-fasted condition. Blood samples were collected via the saphenous vein onto K2-EDTA at 0.25, 0.5, 1, 2, 4, 8 and 24 hours after dosing, and plasma was prepared and stored at −80° C. until analysis. Plasma sample preparation for analysis was done by protein precipitation using acetonitrile (including Verapamil as an internal standard) followed by centrifugation. Compound concentrations were determined in extracted plasma using LC-MS/MS relative to a 12 point standard curve covering the 1 to 4000 nM range. Non-compartmental analysis using Phoenix WinNonlin was used to estimate pharmacokinetic parameters including area under the curve, clearance, and half-life. The administered dose was confirmed by analysis of residual dosing material by UPLC-UV relative to a single point calibration sample.

Like-named read-outs stand apart in the source and are kept apart here.

As a reminder, the Cmax is the highest concentration seen after dosing. One may read the Tmax as the time at which the peak concentration occurs.

Turning to `CC(C)Cc1cc(C(=O)N[C@@H]2CCC[C@H](Nc3cc(C(F)(F)F)nc4ccccc34)C2)n(C)n1` (racemic) [Example 4-90], the IC50 on human MRGPR X2 fell in the range of 1000 to 2500 nM.

For `CN(C)c1ncc(C(=O)N[C@@H]2CCC[C@H](Nc3cc(C(F)(F)F)nc4ccc(Cl)cc34)C2)s1` [Example 4-422], the IC50 at human MRGPR X2 was under 100 nM.

Take `O=C(N[C@@H]1CCC[C@H](Nc2cc(C(F)(F)F)nc3ccc(Cl)cc23)C1)c1cnn(C(F)F)c1` [Example 4-399]: on human MRGPR X2, the IC50 is under 100 nM.

As for `O=C(N[C@@H]1CCC[C@H](Nc2cc(C(F)(F)F)nc3ccccc23)C1)c1cccc(N2CCCC2=O)c1` [Example 4-172], the IC50 at human MRGPR X2 was in the range of 1000 to 2500 nM.

Regarding `O=C(N[C@@H]1CCC[C@H](Nc2nc(C(F)(F)F)nc3ccccc23)C1)c1ccc(F)cc1` [Example 3, 4-fluoro-N-[(1R,3S)-3-[[2-(trifluoromethyl)quinazolin-4-yl]amino]cyclohexyl]benzamide], the IC50 on human MRGPR X2 lay within 501 to 1000 nM.

As for `N#Cc1ccccc1C(=O)N[C@@H]1CCC[C@H](Nc2cc(C(F)(F)F)nc3ccccc23)C1` [Example 3-6], the IC50 at human MRGPR X2 was 100 to 500 nM.

Consider `O=C(N[C@@H]1CCC[C@H](Nc2cc(C(F)(F)F)nc3ccccc23)C1)c1ccc(F)cc1` [Example 1-8], for which, on human MRGPR X2, the IC50 lay within 100 to 500 nM.

On to `O=C(N[C@@H]1CCC[C@H](Nc2cc(C(F)(F)F)nc3ccccc23)C1)C1(c2cnccn2)CC1` (racemic) [Example 4-29], for which the IC50 on human MRGPR X2 was in the range of 1000 to 2500 nM.

For `O=C(N[C@@H]1CCC[C@H](Nc2cc(C(F)(F)F)nc3ccc(Cl)cc23)C1)c1ccn(CCF)c1` [Example 19, N-((1R,3S)-3-((6-chloro-2-(trifluoromethyl)quinolin-4-yl)amino)cyclohexyl)-1-(2-fluoroethyl)-1H-pyrrole-3-carboxamide], the IC50 on human MRGPR X2 is under 100 nM.

Consider `O=C(N[C@@H]1CCC[C@H](Nc2cc(C(F)(F)F)nc3ccc(Cl)cc23)C1)c1ccc(F)nc1` [Example 4-411], for which, on human MRGPR X2, the IC50 was under 100 nM.

Regarding `Cc1nc(N(C)C)ccc1C(=O)N[C@@H]1CCC[C@H](Nc2cc(C(F)(F)F)nc3ccccc23)C1` [Example 4-22], the IC50 at human MRGPR X2 lay within 1000 to 2500 nM.

With `N#CCCn1ncc(C(=O)N[C@@H]2CCC[C@H](Nc3cc(C(F)(F)F)nc4ccc(Cl)cc34)C2)c1Cl` [Example 4-420], the IC50 with Human LAD2 cells and on human MRGPR X2 was under 100 nM throughout.

Turning to `O=C(N[C@@H]1CCC[C@H](Nc2cc(C(F)(F)F)nc3ccc(Cl)cc23)C1)c1cnc(NCCF)nc1` [Example 4-423], the IC50 on human MRGPR X2 was under 100 nM.

Consider `CN(C)c1ccc(C(=O)N[C@@H]2CCC[C@H](Nc3cc(C(F)(F)F)nc4ccc(F)cc34)C2)cc1` [Example 4-421], for which, on human MRGPR X2, the IC50 is under 100 nM.

Regarding `N#CC1(C(=O)N[C@@H]2CCC[C@H](Nc3cc(C(F)(F)F)nc4ccccc34)C2)CC1` [Example 4-183], the IC50 at human MRGPR X2 lay in the range of 1000 to 2500 nM.

Regarding `COc1ccc(C(=O)N[C@@H]2CCC[C@H](Nc3cc(C(F)(F)F)nc4ccc(Cl)cc34)C2)cc1` [Example 1, N-((1R,3S)-3-((6-chloro-2-(trifluoromethyl)quinolin-4-yl)amino)cyclohexyl)-4-methoxybenzamide], the IC50 on human MRGPR X2 is under 100 nM.

With `O=C(CN1C(=O)COc2ccccc21)N[C@@H]1CCC[C@H](Nc2cc(C(F)(F)F)nc3ccccc23)C1` (racemic) [Example 4-100], the IC50 on human MRGPR X2 was in the range of 1000 to 2500 nM.

With `O=C(N[C@@H]1CCC[C@H](Nc2cc(C(F)(F)F)nc3ccc(Cl)cc23)C1)c1ccsn1` [Example 4-425], the IC50 on human MRGPR X2 was under 100 nM.

As to `O=C(N[C@@H]1CCC[C@H](Nc2cc(C(F)(F)F)nc3ccc(Cl)cc23)C1)N1CC2(CC2)C1` [Example 6-9], the AUC(0-t) worked out at 43 µM·h in series [1] (read-out: AUC 0-24) and 42 µM·h in series [1] (read-out: AUC 0-last). In series [1] (mouse), this compound registered a Cmax of 5.1 µM. The Tmax in series [1] (mouse, read-out: PK: Tmax) was 3.3 h.

As for `Nc1ncc(C(=O)N[C@@H]2CCC[C@H](Nc3cc(C(F)(F)F)nc4ccc(Cl)cc34)C2)cn1` [Example 15, 2-amino-N-[(1R,3S)-3-{[6-chloro-2-(trifluoromethyl)quinolin-4-yl]amino}cyclohexyl]pyrimidine-5-carboxamide], the IC50 on human MRGPR X2 is under 100 nM.

As for `COc1ccc(COc2cc(C(=O)N[C@@H]3CCC[C@H](Nc4cc(C(F)(F)F)nc5ccccc45)C3)on2)cc1` (racemic) [Example 4-35], the IC50 at human MRGPR X2 lay in the range of 1000 to 2500 nM.

Regarding `O=C(N[C@@H]1CCC[C@H](Nc2cc(C(F)(F)F)nc3ccc(Cl)cc23)C1)c1cccc(F)c1` [Example 4-239], the IC50 on human MRGPR X2 lay in the range of 100 to 500 nM.

As for `CCCc1nnsc1C(=O)N[C@@H]1CCC[C@H](Nc2cc(C(F)(F)F)nc3ccccc23)C1` (racemic) [Example 4-40], the IC50 on human MRGPR X2 was in the range of 1000 to 2500 nM.

Take `CCS(=O)(=O)Nc1cccc(C(=O)N[C@@H]2CCC[C@H](Nc3cc(C(F)(F)F)nc4ccc(Cl)cc34)C2)c1` [Example 4-241]: the IC50 on human MRGPR X2 was under 100 nM.
